Measured values as given in patent US11834698B2, “Process for determining enzyme activity in a cell by activity-based reporter gene technology (ABRGT)” (INDIAN INSTITUTE OF SCIENCE EDUCATION AND RESEARCH, priority 2018, dated 2023).
Peptide text beside a SMILES is read from it. * marks the point of attachment. Cbz = O=C(OCc1ccccc1)*; CH2F = FC*

Tests used:
caspase-7 GFPspark = biological target: T1, caspase-7 GFPspark (Homo sapiens, UniProt P55210); test: AbRGT FRET imaging / acceptor photobleaching, caspase-7 GFPspark in MCF-7 cells; format: cell-based; conditions: for effect of inhibitor on FRET signal / signal in Rh channel in presence of inhibitor: MCF-7, inhibitor 50 μM pre-treatment, STS 6 h, probe 1
T1 construct: host or cells: MCF-7, HEK-293
T1 sequence (P55210 24-198 limits assumed): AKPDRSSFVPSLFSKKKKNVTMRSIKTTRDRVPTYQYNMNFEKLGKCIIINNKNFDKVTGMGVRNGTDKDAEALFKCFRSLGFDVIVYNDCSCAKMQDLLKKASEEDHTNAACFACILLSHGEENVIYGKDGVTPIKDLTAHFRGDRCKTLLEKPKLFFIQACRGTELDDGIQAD
T1 sequence (P55210 207-303 limits assumed): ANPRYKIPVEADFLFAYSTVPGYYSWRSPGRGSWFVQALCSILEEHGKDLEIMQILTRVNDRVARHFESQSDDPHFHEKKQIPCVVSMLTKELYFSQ
Experimental: FIGS. 13A and 13B depict specific detection of caspase-7 GFPspark in MCF-7 cells. […] Cells were fixed and the fluorescence signal was collected in GFP, FRET and Rh channel. […] Bar graph representing the rise in GFP intensity in ROI after rhodamine photobleaching was 89 a.u. as compared to the unbleached background, i.e., 9 a.u. FRET efficiency was calculated to be 32±2%.
(§1) FIG. 15 depicts confocal images of MCF-7 cells in GFP, FRET and Rh channel Caspase-7 GFPspark transfected MCF-7 cells were treated with STS (1 μM) for 6 h and labelled (a) (i) with probe 1 (1 μM) probe. Cells were pre-treated with (a) (ii) Z-VAD-FMK (50 μM) or (a) (iii) Q-VD-OPh (50 μM) pan-caspase inhibitors 1 h before the probe labelling. Caspase-9 GFPspark transfected MCF-7 cells were treated with STS (1 μM) for 4 h and labelled (b) (i) with probe 1 (1 μM) probe. Cells were pre-treated with (b) (ii) Z-VAD-FMK (50 μM) 1 h before probe labelling. Caspase-8 GFPspark overexpressing HEK-293 cells were treated with TRAIL (1 μg/ml) for 5 h and labelled (c) (i) with the probe 1. Cells were pre-treated with (c) (ii) Z-VAD-FMK (50 μM) 1 h before probe labelling.
(§2) Plasmids and transient transfection: GFPspark tagged plasmids; caspase-3 GFPspark tag (Cat: HG10050-ACG), caspase-7 GFPspark tag (HG10049-ACG), caspase-8 GFPspark (HG10078-ACG), caspase-9 GFPspark (HG11151-ACG) and cathepsin B GFPspark (HG10483-ACG) were procured from Sino Biological. For transfection, cells were seeded in a 6-well plate at a density of 0.4 million cells/well. At 60-70% confluency, cells were transiently transfected for 24 h at 37° C. with 1 μg of the GFPspark tagged plasmid DNA construct mixed with 5 μL of Lipofectamine 2000 (Invitrogen) according to the manufacturer's instructions. 24 h post-transfection, cells were visualized under the GFP filter for GFPspark expression under fluorescence microscope at 10× magnification.
Labelling of active caspases in apoptotic cells with FABP: After 24 h of transfection, cells were treated with STS (1 μM) drug or TRAIL (1 μg/ml) for apoptotic induction and incubated for 2, 4, 6 and 8 h at 37° C. in a humidified atmosphere of 5% CO2/95% air. Cells were gently scraped off from the surface at the end of apoptotic induction and centrifuged at 3000 rpm for 5 min. The cell pellet was resuspended in 300 μL of fresh DMEM containing 1 μM of probe for probe 2 and incubated for additional 2 h at 37° C. in a humidified atmosphere of 5% CO2. Cells were again centrifuged at 3000 rpm for 5 mins, and the supernatant was decanted. Cells were washed with 1×PBS, thrice finally resuspended in 20 μL of 1×PBS. The cell suspension was put on a slide, and a coverslip was placed over it. It was left for air drying. Slides were then imaged for GFP, FRET and rhodamine fluorescence signals under confocal microscopy.
Inhibitor assay: Cells were pre-treated with 50 μM of Z-VAD-FMK or Q-VD-OPh or E-64 inhibitor 1 h before probe 1 labelling and incubated for 1 h at 37° C. in a humidified atmosphere of 5% CO2. Cells were gently scraped off from the surface at the end of inhibitor treatment and centrifuged at 3000 rpm for 5 min Cells were then labelled with the probe 1 as described in the previous section.
Fluorescence imaging studies, FRET procedure: Images were collected on Zeiss LSM710 confocal microscope with 25 mW argon laser using Zen10 software. The laser was tuned to lines at 488 nm (excitation laser for GFPspark) and 561 nm (excitation laser for rhodamine) Cells were examined with a 40× 1.3 NA Zeiss oil immersion objective and 2.4× zoom. Images were collected in the three channels; GFP channel, argon laser tuned at 488 nm with 2% laser intensity and fluorescence emission was collected in emission range of 490-550 nm; rhodamine channel, argon laser tuned to 561 nm laser with 2% laser intensity and fluorescence emission was collected in range 550-650 nm and FRET channel with excitation laser of GFPSPARK channel and emission range of rhodamine channel. […]

caspase-8 GFPspark = biological target: T2, caspase-8 GFPspark (Homo sapiens, UniProt Q14790); test: AbRGT FRET imaging / acceptor photobleaching, caspase-8 GFPspark in HEK-293 cells; format: cell-based
T2 construct: host or cells: HEK-293
Experimental: as §1
FIG. 18 depicts specific detection of caspase-8 GFPspark in HEK-293 cells. Casp-8 GFPspark (1 μg) transfected HEK-293 cells were treated with TRAIL ([…]) for 6 h and labelled with the probe 1 (1 μM) for 2 h. Cells were washed, fixed and the fluorescence signal was collected in GFP, FRET and Rh channels. The acceptor photobleaching experiment was performed to confirm the FRET signal as described previously. The bar graph representing a rise in GFP intensity in ROI after rhodamine photobleaching was 82 a.u. as compared to the unbleached background, i.e., 11 a.u. The FRET efficiency was calculated to be 31±1%.
as §2
Labelling of active caspases in apoptotic cells with FABP: After 24 h of transfection, cells were treated with STS (1 μM) drug or TRAIL (1 μg/ml) for apoptotic induction and incubated for 2, 4, 6 and 8 h at 37° C. in a humidified atmosphere of 5% CO2/95% air. Cells were gently scraped off from the surface at the end of apoptotic induction and centrifuged at 3000 rpm for 5 min. […] Slides were then imaged for GFP, FRET and rhodamine fluorescence signals under confocal microscopy. […]
Fluorescence imaging studies, FRET procedure: Images were collected on Zeiss LSM710 confocal microscope with 25 mW argon laser using Zen10 software. […]

[1] = HEK-293, TRAIL, Z-VAD-FMK pre-treatment
[2] = HEK-293, TRAIL 6 h, probe 1 μM 2 h

T2 sequence (Q14790 217-374 limits assumed): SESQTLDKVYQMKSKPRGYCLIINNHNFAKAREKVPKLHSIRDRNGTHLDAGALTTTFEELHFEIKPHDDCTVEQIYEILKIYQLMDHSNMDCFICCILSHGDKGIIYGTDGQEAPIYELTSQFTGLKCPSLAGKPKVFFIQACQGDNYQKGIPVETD
T2 sequence (Q14790 385-479 limits assumed): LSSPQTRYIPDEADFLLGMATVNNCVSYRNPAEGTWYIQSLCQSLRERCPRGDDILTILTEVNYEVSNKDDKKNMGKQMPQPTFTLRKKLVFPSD

Row | Compound | effect of inhibitor on FRET signal (caspase-7 GFPspark) | signal in Rh channel in presence of inhibitor (caspase-7 GFPspark) | effect of inhibitor on signal in FRET channel (caspase-8 GFPspark; [1]) | effect of inhibitor on signal in Rh channel (caspase-8 GFPspark; [1]) | rise in GFP intensity in ROI after rhodamine photobleaching (caspase-7 GFPspark; MCF-7, STS 1 μM 5 h, probe 1 μM) [a.u.] | calculated FRET efficiency (caspase-7 GFPspark; MCF-7, STS 1 μM 5 h or 6 h, probe 1 μM) [%] | calculated FRET efficiency (caspase-8 GFPspark; [2]) [%] | rise in GFP intensity in ROI after rhodamine photobleaching (caspase-8 GFPspark; [2]) [a.u.]
1 | CC(C)[C@H](NC(=O)c1ccc2ccccc2n1)C(=O)N[C@@H](CC(=O)O)C(=O)COc1c(F)cccc1F [Q-VD-OPh] | abolished | significant punctate labelling | – | – | – | – | – | –
2 | COC(=O)C[C@H](NC(=O)[C@H](C)NC(=O)[C@@H](NC(=O)OCc1ccccc1)C(C)C)C(=O)CF [Z-VAD-FMK] (Cbz-Val-Ala-Asp(OMe)-CH2F) | completely abolished | completely abolished | abolished | abolished | – | – | – | –
3 | Rhodamine-VAD-fluoromethyl ketone [probe 1] | – | – | – | – | 89 | 32±2 | 31±1 | 82
